Laboratory results reported in PubChem BioAssay AID328 (DTP/NCI, 2004).
Values joined by “and” are separate entries in the source; they are usually repeats but may differ in a detail not shown here. Equal values may be shown once. Toxic doses and inconclusive results are not listed.

Test system: BDF1 mice, P388 leukemia ip, median survival T/C
Experiment: NCI In Vivo Anticancer Drug Screen. Data for tumor model P388 Leukemia (intraperitoneal) in B6D2F1 (BDF1) mice
Settings: endpoint: median survival time, higher = longer survival
Procedure, shortened: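 Antitumour effect was judged in vivo: survival in drug-treated mice, normalised to that of vehicle-dosed controls, gives the reported T/C.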

[1] = dose: 100.0 mg/kg/injection, schedule: Q01DX009 (ip), vehicle: saline with Tween-80
[2] = dose: 200.0 mg/kg/injection, schedule: Q01DX009 (ip), vehicle: saline with Tween-80
[3] = dose: 400.0 mg/kg/injection, schedule: Q01DX009 (ip), vehicle: saline with Tween-80

Structure (SMILES): COc1cccc2c1C(=O)c1c(O)c3c(c(O)c1C2=O)CC(O)(/C(C)=N\NC(=O)N/N=C(\C)C1(O)Cc2c(O)c4c(c(O)c2C(OC2CC(N)C(O)C(C)O2)C1)C(=O)c1c(OC)cccc1C4=O)CC3OC1CC(N)C(O)C(C)O1 (centres undefined)
- T/C (dose: 3.13 mg/kg/injection, schedule: Q04DX003 (ip), vehicle: water): 108 % of control
- T/C (dose: 6.25 mg/kg/injection, schedule: Q04DX003 (ip), vehicle: water): 117 % of control
- T/C (dose: 12.5 mg/kg/injection, schedule: Q04DX003 (ip), vehicle: water): 117 % of control
- T/C (dose: 50.0 mg/kg/injection, schedule: Q04DX003 (ip), vehicle: water): 153 % of control
- T/C (dose: 100.0 mg/kg/injection, schedule: Q04DX003 (ip), vehicle: water): 162 % of control

Structure (SMILES): Cc1cc2c(cc1C)C(O)C(N1CCN(C)CC1)CCC2 (centres undefined)
- T/C (dose: 50.0 mg/kg/injection, schedule: Q04DX003 (ip), vehicle: saline with Tween-80): 109 % of control
- T/C (dose: 100.0 mg/kg/injection, schedule: Q04DX003 (ip), vehicle: saline with Tween-80): 100 % of control
- T/C (dose: 200.0 mg/kg/injection, schedule: Q04DX003 (ip), vehicle: saline with Tween-80): 100 % of control

Structure (SMILES): CCOC(=O)C1CC2(CCC1N)c1ccccc1-c1ccccc12 (centres undefined)
- T/C (dose: 50.0 mg/kg/injection, schedule: Q01DX009 (ip), vehicle: saline with Tween-80): 102 % of control
- T/C [1]: 99 % of control
- T/C [2]: 108 % of control

Structure (SMILES): C=C/C=C\N(CC)CC
- T/C (dose: 0.78 mg/kg/injection, schedule: Q01DX009 (ip), vehicle: water): 110 % of control
- T/C (dose: 1.56 mg/kg/injection, schedule: Q01DX009 (ip), vehicle: water): 109 % of control and 112 % of control
- T/C (dose: 3.12 mg/kg/injection, schedule: Q01DX009 (ip), vehicle: water): 107 % of control and 121 % of control
- T/C (dose: 6.25 mg/kg/injection, schedule: Q01DX009 (ip), vehicle: water): 89 % of control and 100 % of control and 102 % of control
- T/C (dose: 12.5 mg/kg/injection, schedule: Q01DX009 (ip), vehicle: water): 102 % of control and 123 % of control
- T/C (dose: 25.0 mg/kg/injection, schedule: Q01DX009 (ip), vehicle: water): 89 % of control and 116 % of control and 118 % of control

Structure (SMILES): CCC(C)C(=O)OC1C(=O)OC2CC3C(C)=CC(=O)C(O)C3(C)C3C4(O)OCC23C1C(C)C4O (centres undefined)
- T/C (dose: 0.06 mg/kg/injection, schedule: Q01DX009 (ip), vehicle: saline with Tween-80): 117 % of control
- T/C (dose: 0.25 mg/kg/injection, schedule: Q01DX009 (ip), vehicle: saline): 121 % of control
- T/C (dose: 1.0 mg/kg/injection, schedule: Q01DX009 (ip), vehicle: saline): 111 % of control
- T/C (dose: 2.0 mg/kg/injection, schedule: Q01DX009 (ip), vehicle: saline): 124 % of control
- T/C (dose: 8.0 mg/kg/injection, schedule: Q01DX009 (ip), vehicle: saline with Tween-80): 95 % of control

Structure (SMILES): C(COCCOCC1CO1)OCCOCC1CO1 (centres undefined)
- T/C (dose: 50.0 mg/kg/injection, schedule: Q01DX010 (ip), vehicle: saline): 109 % of control
- T/C (dose: 200.0 mg/kg/injection, schedule: Q01DX010 (ip), vehicle: saline): 150 % of control
- T/C (dose: 400.0 mg/kg/injection, schedule: Q01DX010 (ip), vehicle: saline): 154 % of control and 172 % of control

Structure (SMILES): CC(C)N(C)C(C)(C)CO
- T/C (dose: 50.0 mg/kg/injection, schedule: Q01DX001 (ip), vehicle: saline): 100 % of control
- T/C (dose: 100.0 mg/kg/injection, schedule: Q01DX001 (ip), vehicle: saline): 100 % of control
- T/C (dose: 200.0 mg/kg/injection, schedule: Q01DX001 (ip), vehicle: saline): 100 % of control

Structure (SMILES): O=C(O)CSc1ccc(NC(=O)NC2CCCCC2)cc1
- T/C [1]: 105 % of control
- T/C [2]: 115 % of control
- T/C [3]: 105 % of control

Structure (SMILES): COC(=O)C(C)=O
- T/C [1]: 90 % of control
- T/C [2]: 95 % of control
- T/C [3]: 90 % of control

Structure (SMILES): c1ccc2c(CNC3CCCCC3)c[nH]c2c1
- T/C (dose: 100.0 mg/kg/injection, schedule: Q04DX003 (ip), vehicle: Klucel (hydroxypropylcellulose) (HPC)): 95 % of control
- T/C (dose: 200.0 mg/kg/injection, schedule: Q04DX003 (ip), vehicle: Klucel (hydroxypropylcellulose) (HPC)): 90 % of control
- T/C (dose: 400.0 mg/kg/injection, schedule: Q04DX003 (ip), vehicle: Klucel (hydroxypropylcellulose) (HPC)): 90 % of control

Structure (SMILES): Cc1c(C)c(O)c2c(c1O)C(=O)C=C(Cl)C2=O
- T/C (dose: 6.25 mg/kg/injection, schedule: Q04DX003 (ip), vehicle: saline with Tween-80): 121 % of control
- T/C (dose: 12.5 mg/kg/injection, schedule: Q04DX003 (ip), vehicle: saline with Tween-80): 119 % of control and 120 % of control
- T/C (dose: 25.0 mg/kg/injection, schedule: Q04DX003 (ip), vehicle: saline with Tween-80): 110 % of control and 120 % of control

Structure (SMILES): CC(=O)Oc1ccc(OC(C)=O)c2c1CC1(C)OC1(C)C2 (centres undefined)
- T/C (dose: 1.56 mg/kg/injection, schedule: Q01DX009 (ip), vehicle: saline): 96 % of control
- T/C (dose: 3.12 mg/kg/injection, schedule: Q01DX009 (ip), vehicle: saline): 96 % of control
- T/C (dose: 6.25 mg/kg/injection, schedule: Q01DX009 (ip), vehicle: saline): 99 % of control
- T/C (dose: 12.5 mg/kg/injection, schedule: Q01DX009 (ip), vehicle: saline): 88 % of control
- T/C (dose: 25.0 mg/kg/injection, schedule: Q01DX009 (ip), vehicle: saline): 88 % of control
- T/C (dose: 25.0 mg/kg/injection, schedule: Q04DX003 (ip), vehicle: saline): 96 % of control
- T/C (dose: 50.0 mg/kg/injection, schedule: Q01DX009 (ip), vehicle: saline): 97 % of control and 109 % of control
- T/C (dose: 50.0 mg/kg/injection, schedule: Q04DX003 (ip), vehicle: saline): 107 % of control
- T/C (dose: 100.0 mg/kg/injection, schedule: Q01DX009 (ip), vehicle: saline): 96 % of control
- T/C (dose: 100.0 mg/kg/injection, schedule: Q04DX003 (ip), vehicle: saline): 87 % of control
- T/C (dose: 200.0 mg/kg/injection, schedule: Q01DX009 (ip), vehicle: saline): 94 % of control
- T/C (dose: 200.0 mg/kg/injection, schedule: Q04DX003 (ip), vehicle: saline): 103 % of control
- T/C (dose: 400.0 mg/kg/injection, schedule: Q01DX009 (ip), vehicle: saline): 90 % of control
- T/C (dose: 400.0 mg/kg/injection, schedule: Q04DX003 (ip), vehicle: saline): 100 % of control
